Results published in patent publication US8247211B2, “Glycopeptide antibiotics” (American Cyanamid Company, priority 2001, dated 2012).
Converted amounts (≈) assume the structure as drawn. One block for each compound: values may come before it.

Assays:
Experiment in all cases: In vitro antibacterial evaluation: minimum inhibitory concentration (MIC), broth dilution method
Assay type in all cases: cell-based
Escherichia coli = system: Escherichia coli
Method: (§1) The minimum inhibitory concentration (MIC), the lowest concentration of the antibiotic which inhibits growth of the test organism, is determined by the broth dilution method using Muller-Hinton II […] (Baltimore Biological Laboratories) following the recommendations of the National Committee for Clinical Laboratory Standards [Methods for dilution antimicrobial susceptibility tests for bacteria that grow aerobically, approved standard M7-A2, National Committee for Clinical Laboratory Standards, Villanova, Pa].
(§2) An inoculum level of 5×10^5 CFU/mL, and a range of antibiotic concentrations (64-0.06 μg/mL) is used. […] The test organisms include a spectrum of Gram-positive bacteria comprised of Staphylococcus sp., Streptococcus sp. and Enterococcus sp. These organisms include recent clinical isolates that are resistant to methicillin, penicillin and/or vancomycin.

Staphylococcus sp. = system: Staphylococcus sp.
Method: as §1, §2

Enterococcus sp. = system: Enterococcus sp.
Method: as §1, §2

Streptococcus sp. = system: Streptococcus sp.
Method: as §1, §2

[1] = 5×10^5 CFU/mL, 18 hours at 35° C.
[2] = strain GC 4543, broth dilution, 18 hours at 35° C.
[3] = strain GC 4546, broth dilution, 18 hours at 35° C.
[4] = strain GC 4547, broth dilution, 18 hours at 35° C.
[5] = strain GC 4548, broth dilution, 18 hours at 35° C.
[6] = strain GC 4549, broth dilution, 18 hours at 35° C.
[7] = strain GC 4551, broth dilution, 18 hours at 35° C.
[8] = strain GC 6257, broth dilution, 18 hours at 35° C.
[9] = broth dilution, 5×10^5 CFU/mL, 18 hours at 35° C.

- MIC Escherichia coli (ATCC 25922) (Escherichia coli; [1]): >0.5 µg/mL
- MIC Escherichia coli (GC 4559) (Escherichia coli; [1]): >0.5 µg/mL
- MIC Escherichia coli (GC 4560) (Escherichia coli; [1]): 0.5 µg/mL (≈ 0.361 µM)
- MIC Staphylococcus aureus (ATCC 29213) (Staphylococcus sp.; strain ATCC 29213): 0.5 µg/mL (≈ 0.361 µM)
- MIC Staphylococcus aureus (GC 1131) (Staphylococcus sp.; strain GC 1131): 0.5 µg/mL (≈ 0.361 µM)
- MIC Staphylococcus aureus (GC 3051) (Staphylococcus sp.; strain GC 3051): 0.5 µg/mL (≈ 0.361 µM)
- MIC Staphylococcus aureus (GC 3053) (Staphylococcus sp.; strain GC 3053): 0.5 µg/mL (≈ 0.361 µM)
- MIC Staphylococcus aureus (GC 4541) (Staphylococcus sp.; strain GC 4541): 0.5 µg/mL (≈ 0.361 µM)
- MIC Staphylococcus aureus (GC 4542) (Staphylococcus sp.; strain GC 4542): 0.5 µg/mL (≈ 0.361 µM)
- MIC Staphylococcus aureus-SMITH (GC 4543) (Staphylococcus sp.; strain GC 4543, 18 hours at 35° C.): 0.5 µg/mL (≈ 0.361 µM)
- MIC Staphylococcus aureus-SMITH (GC 4543) (Staphylococcus sp.; [2]): 0.5 µg/mL (≈ 0.361 µM)
- MIC Staphylococcus aureus (GC 4544) (Staphylococcus sp.; strain GC 4544): 0.5 µg/mL (≈ 0.361 µM)
- MIC Staphylococcus aureus (GC 4545) (Staphylococcus sp.; strain GC 4545): 0.5 µg/mL (≈ 0.361 µM)
- MIC Coagulase Negative Staphylococcus (GC 4547) (Staphylococcus sp.; strain GC 4547): 4 µg/mL (≈ 2.89 µM)
- MIC Coagulase Negative Staphylococcus (GC 4547) (Staphylococcus sp.; [4]): 4 µg/mL (≈ 2.89 µM)
- MIC Coagulase Negative Staphylococcus (GC 4548) (Staphylococcus sp.; strain GC 4548): 4 µg/mL (≈ 2.89 µM)
- MIC Coagulase Negative Staphylococcus (GC 4548) (Staphylococcus sp.; [5]): 4 µg/mL (≈ 2.89 µM)
- MIC Coagulase Negative Staphylococcus (GC 4549) (Staphylococcus sp.; strain GC 4549): 4 µg/mL (≈ 2.89 µM)
- MIC Coagulase Negative Staphylococcus (GC 4549) (Staphylococcus sp.; [6]): 4 µg/mL (≈ 2.89 µM)
- MIC Coagulase Negative Staphylococcus (GC 4551) (Staphylococcus sp.; strain GC 4551): 8 µg/mL (≈ 5.78 µM)
- MIC Coagulase Negative Staphylococcus (GC 4551) (Staphylococcus sp.; [7]): 8 µg/mL (≈ 5.78 µM)
- MIC Coagulase Negative Staphylococcus (GC 6257) (Staphylococcus sp.; strain GC 6257): 2 µg/mL (≈ 1.45 µM)
- MIC Coagulase Negative Staphylococcus (GC 6257) (Staphylococcus sp.; [8]): 2 µg/mL (≈ 1.45 µM)
- MIC Enterococccus avium (GC 4558) (Enterococcus sp.; [9]): 0.5 µg/mL (≈ 0.361 µM)
- MIC Enterococccus faecalis (ATCC 29212) (Enterococcus sp.; [9]): 0.5 µg/mL (≈ 0.361 µM)
- MIC Enterococccus faecalis (GC 2691) (Enterococcus sp.; [9]): 0.5 µg/mL (≈ 0.361 µM)
- MIC Enterococccus faecalis (GC 3059) (Enterococcus sp.; [9]): 0.5 µg/mL (≈ 0.361 µM)
- MIC Enterococccus faecalis (GC 4552) (Enterococcus sp.; [9]): 0.5 µg/mL (≈ 0.361 µM)
- MIC Enterococccus faecalis (GC 4553) (Enterococcus sp.; [9]): 0.5 µg/mL (≈ 0.361 µM)
- MIC Enterococccus faecalis (GC 4554) (Enterococcus sp.; [9]): 0.5 µg/mL (≈ 0.361 µM)
- MIC Enterococccus faecalis (GC 6189) (Enterococcus sp.; [9]): 0.5 µg/mL (≈ 0.361 µM)
- MIC Enterococccus faecium (GC 2243) (Enterococcus sp.; [9]): 0.5 µg/mL (≈ 0.361 µM)
- MIC Enterococccus faecium (GC 4556) (Enterococcus sp.; [9]): 0.5 µg/mL (≈ 0.361 µM)
- MIC Enterococccus faecium (GC 4557) (Enterococcus sp.; [9]): 0.5 µg/mL (≈ 0.361 µM)
- MIC Enterococcus faecalis (GC 2242) (Enterococcus sp.; [9]): 0.5 µg/mL (≈ 0.361 µM)
- MIC Streptococcus agalactiae (GC 4564) (Streptococcus sp.; [9]): 0.5 µg/mL (≈ 0.361 µM)
- MIC Streptococcus pneumoniae (GC 1894) (Streptococcus sp.; [9]): 0.12 µg/mL (≈ 0.0867 µM)
- MIC Streptococcus pneumoniae (GC 4565) (Streptococcus sp.; [9]): 0.12 µg/mL (≈ 0.0867 µM)
- MIC Streptococcus pneumonine (ATCC 6301) (Streptococcus sp.; [9]): 0.12 µg/mL (≈ 0.0867 µM)
- MIC Streptococcus pyogenes (GC 4563) (Streptococcus sp.; [9]): 0.12 µg/mL (≈ 0.0867 µM)
SMILES: CC(c1ccccc1)C1NC(=O)CNC(=O)C(CO)NC(=O)C(C(O)C2CNC(=N)N2C2OC(CO)C(O)C(O)C2O)NC(=O)C(C(O)C2CNC(=N)N2)NC(=O)C(Cc2ccc(OC3OC(CO)C(OC4OC(CO)C(O)C5OC(c6ccccc6)OC45)C(O)C3O)cc2)NC1=O (single isomer, unassigned) [Example 104b, Cyclo[glycyl-β-methylphenylalanyl-O-[4-O-(2,3-O-benzylidenehexopyranosyl)hexopyranosyl]-tyrosyl-3(2-iminoimidazolidin-4-yl)seryl-3-(3-hexopyranosyl-2-iminoimidazolidin-4-yl)-serylseryl]]
- MIC Staphylococcus haemolyticus (GC 4546) (Staphylococcus sp.; strain GC 4546): 0.5 µg/mL (≈ 0.361 µM)
- MIC Staphylococcus haemolyticus (GC 4546) (Staphylococcus sp.; [3]): 0.5 µg/mL (≈ 0.361 µM)

- MIC Escherichia coli (ATCC 25922) (Escherichia coli; strain ATCC 25922): >64 µg/mL
- MIC Escherichia coli (GC 4559) (Escherichia coli; strain GC 4559): >64 µg/mL
- MIC Escherichi coli (GC 4560) (Escherichia coli; strain GC 4560): 8 µg/mL (≈ 5.66 µM)
- MIC Coagulase Negative Staphylococcus (GC 4547) (Staphylococcus sp.; [9]): 16 µg/mL (≈ 11.3 µM)
- MIC Coagulase Negative Staphylococcus (GC 4548) (Staphylococcus sp.; [9]): 8 µg/mL (≈ 5.66 µM)
- MIC Coagulase Negative Staphylococcus (GC 4549) (Staphylococcus sp.; [9]): 8 µg/mL (≈ 5.66 µM)
- MIC Coagulase Negative Staphylococcus (GC 4551) (Staphylococcus sp.; [9]): 16 µg/mL (≈ 11.3 µM)
- MIC Coagulase Negative Staphylococcus (GC 6257) (Staphylococcus sp.; [9]): 8 µg/mL (≈ 5.66 µM)
- MIC Staphylococcus aureus (ATCC 29213) (Staphylococcus sp.; [9]): 32 µg/mL (≈ 22.6 µM)
- MIC Staphylococcus aureus (GC 1131) (Staphylococcus sp.; [9]): 32 µg/mL (≈ 22.6 µM)
- MIC Staphylococcus aureus (GC 3051) (Staphylococcus sp.; [9]): 32 µg/mL (≈ 22.6 µM)
- MIC Staphylococcus aureus (GC 3053) (Staphylococcus sp.; [9]): 32 µg/mL (≈ 22.6 µM)
- MIC Staphylococcus aureus (GC 4541) (Staphylococcus sp.; [9]): 16 µg/mL (≈ 11.3 µM)
- MIC Staphylococcus aureus (GC 4542) (Staphylococcus sp.; [9]): 32 µg/mL (≈ 22.6 µM)
- MIC Staphylococcus aureus (GC 4544) (Staphylococcus sp.; [9]): 32 µg/mL (≈ 22.6 µM)
- MIC Staphylococcus aureus (GC 4545) (Staphylococcus sp.; [9]): 32 µg/mL (≈ 22.6 µM)
- MIC Staphylococcus aureus-SMITH (GC 4543) (Staphylococcus sp.; [9]): 16 µg/mL (≈ 11.3 µM)
- MIC Staphylococcus aureus (ATCC 29213) (Staphylococcus sp.; strain ATCC 29213, broth dilution, 18 hours at 35° C.): 32 µg/mL (≈ 22.6 µM)
- MIC Staphylococcus aureus (GC 1131) (Staphylococcus sp.; strain GC 1131, broth dilution, 18 hours at 35° C.): 32 µg/mL (≈ 22.6 µM)
- MIC Staphylococcus aureus (GC 3051) (Staphylococcus sp.; strain GC 3051, broth dilution, 18 hours at 35° C.): 32 µg/mL (≈ 22.6 µM)
- MIC Staphylococcus aureus (GC 3053) (Staphylococcus sp.; strain GC 3053, broth dilution, 18 hours at 35° C.): 32 µg/mL (≈ 22.6 µM)
- MIC Staphylococcus aureus (GC 4541) (Staphylococcus sp.; strain GC 4541, broth dilution, 18 hours at 35° C.): 16 µg/mL (≈ 11.3 µM)
- MIC Staphylococcus aureus (GC 4542) (Staphylococcus sp.; strain GC 4542, broth dilution, 18 hours at 35° C.): 32 µg/mL (≈ 22.6 µM)
- MIC Staphylococcus aureus-SMITH (GC 4543) (Staphylococcus sp.; [2]): 16 µg/mL (≈ 11.3 µM)
- MIC Staphylococcus aureus (GC 4544) (Staphylococcus sp.; strain GC 4544, broth dilution, 18 hours at 35° C.): 32 µg/mL (≈ 22.6 µM)
- MIC Staphylococcus aureus (GC 4545) (Staphylococcus sp.; strain GC 4545, broth dilution, 18 hours at 35° C.): 32 µg/mL (≈ 22.6 µM)
- MIC Coagulase Negative Staphylococcus (GC 4547) (Staphylococcus sp.; [4]): 16 µg/mL (≈ 11.3 µM)
- MIC Coagulase Negative Staphylococcus (GC 4548) (Staphylococcus sp.; [5]): 8 µg/mL (≈ 5.66 µM)
- MIC Coagulase Negative Staphylococcus (GC 4549) (Staphylococcus sp.; [6]): 8 µg/mL (≈ 5.66 µM)
- MIC Coagulase Negative Staphylococcus (GC 4551) (Staphylococcus sp.; [7]): 16 µg/mL (≈ 11.3 µM)
- MIC Coagulase Negative Staphylococcus (GC 6257) (Staphylococcus sp.; [8]): 8 µg/mL (≈ 5.66 µM)
- MIC Enterococcus faecalis (ATCC 29212) (Enterococcus sp.; strain ATCC 29212): >64 µg/mL
- MIC Enterococcus faecalis (GC 2242) (Enterococcus sp.; strain GC 2242): >64 µg/mL
- MIC Enterococcus faecium (GC 2243) (Enterococcus sp.; strain GC 2243): >64 µg/mL
- MIC Enterococcus faecalis (GC 2691) (Enterococcus sp.; strain GC 2691): >64 µg/mL
- MIC Enterococcus faecalis (GC 3059) (Enterococcus sp.; strain GC 3059): >64 µg/mL
- MIC Enterococcus faecalis (GC 4552) (Enterococcus sp.; strain GC 4552): >64 µg/mL
- MIC Enterococcus faecalis (GC 4553) (Enterococcus sp.; strain GC 4553): >64 µg/mL
- MIC Enterococcus faecalis (GC 4554) (Enterococcus sp.; strain GC 4554): >64 µg/mL
- MIC Enterococcus faecium (GC 4556) (Enterococcus sp.; strain GC 4556): >64 µg/mL
- MIC Enterococcus faecium (GC 4557) (Enterococcus sp.; strain GC 4557): 16 µg/mL (≈ 11.3 µM)
- MIC Enterococcus avium (GC 4558) (Enterococcus sp.; strain GC 4558): 64 µg/mL (≈ 45.3 µM)
- MIC Enterococcus faecalis (GC 6189) (Enterococcus sp.; strain GC 6189): >64 µg/mL
- MIC Streptococcus pneumoniae (ATCC 6301) (Streptococcus sp.; strain ATCC 6301): 8 µg/mL (≈ 5.66 µM)
- MIC Streptococcus pneumoniae (GC 1894) (Streptococcus sp.; strain GC 1894): 4 µg/mL (≈ 2.83 µM)
- MIC Streptococcus pyogenes (GC 4563) (Streptococcus sp.; strain GC 4563): 16 µg/mL (≈ 11.3 µM)
- MIC Streptococcus agalactiae (GC 4564) (Streptococcus sp.; strain GC 4564): 16 µg/mL (≈ 11.3 µM)
- MIC Streptococcus pneumoniae (GC 4565) (Streptococcus sp.; strain GC 4565): 16 µg/mL (≈ 11.3 µM)
SMILES: COc1cccc(C2OC3C(OC4C(CO)OC(Oc5ccc(CC6NC(=O)C(C(C)c7ccccc7)NC(=O)CNC(=O)C(CO)NC(=O)C(C(O)C7CNC(=N)N7C7OC(CO)C(O)C(O)C7O)NC(=O)C(C(O)C7CNC(=N)N7)NC6=O)cc5)C(O)C4O)OC(CO)C(O)C3O2)c1 (single isomer, unassigned) [Example 137a, Cyclo[glycyl-β-methylphenylalanyl-O-[4-O-[2,3-O-(3-methoxybenzylidene)hexopyranosyl]-hexopyranosyl]tyrosyl-3-(2-iminoimidazolidin-4-yl)seryl-3-(3-hexopyranosyl-2-iminoimidazolidin-4-yl)serylseryl]]
- MIC Staphylococcus haemolyticus (GC 4546) (Staphylococcus sp.; [9]): 16 µg/mL (≈ 11.3 µM)
- MIC Staphylococcus haemolyticus (GC 4546) (Staphylococcus sp.; [3]): 16 µg/mL (≈ 11.3 µM)
